Measured values reported in publication PMC6471177 (Pharmaceutics, 2019).

Experiments:
[1] = MTT cell viability assay in Caco-2 cells; assay type: cell-based; conditions: human; Caco-2 cells, 0.001 to 100 µM, 24 h, MTT
Experimental: (§1) Caco-2 cells were obtained from the Korean Cell Line Bank (Seoul, Korea). The cells were maintained in Dulbecco’s modified Eagle’s medium (DMEM) supplemented with 10% fetal bovine serum, 1% non-essential amino acids, and 100 U/mL penicillin and gentamicin at 37 °C in a humidified 5% CO2 atmosphere.
(§2) The effect of LC478 on cell viability was assessed by an MTT assay. LC478 was dissolved in diluted in 100% dimethyl sulfoxide (DMSO) and diluted with cell culture media. Caco-2 cells were seeded in 96-well plates at 1 × 10^5 cells/mL. A 100 μL of LC478 in cell culture media was treated on the plates to achieve final concentration of LC478 in the ranges of 0.001 to 100 μM, which was incubated for 24 h. After adding 10 μL/well of MTT ([…]) and incubating them for 24 h, the supernatants of the cultures were removed and replaced with 100 μL of DMSO. The cell viability rate (%) was calculated as the absorbance of treated cells divided by that of control cells. The viability of the control cells was defined as 100%.

Caco-2 cells = assay: MTT cell viability assay in Caco-2 cells; assay type: cell-based; conditions: even at 100 µM, 24 h incubation
Experimental: as §1, §2

P-gp = target: T1, P-gp (Homo sapiens, UniProt P08183); assay: Intracellular accumulation of docetaxel in Caco-2 cells (P-gp inhibition); assay type: cell-based
T1 construct: They were allowed to grow to confluence for 5 days to obtain higher expressions of P-gp; endogenous in cells; host or cells: Caco-2
T1 sequence (P08183 whole entry): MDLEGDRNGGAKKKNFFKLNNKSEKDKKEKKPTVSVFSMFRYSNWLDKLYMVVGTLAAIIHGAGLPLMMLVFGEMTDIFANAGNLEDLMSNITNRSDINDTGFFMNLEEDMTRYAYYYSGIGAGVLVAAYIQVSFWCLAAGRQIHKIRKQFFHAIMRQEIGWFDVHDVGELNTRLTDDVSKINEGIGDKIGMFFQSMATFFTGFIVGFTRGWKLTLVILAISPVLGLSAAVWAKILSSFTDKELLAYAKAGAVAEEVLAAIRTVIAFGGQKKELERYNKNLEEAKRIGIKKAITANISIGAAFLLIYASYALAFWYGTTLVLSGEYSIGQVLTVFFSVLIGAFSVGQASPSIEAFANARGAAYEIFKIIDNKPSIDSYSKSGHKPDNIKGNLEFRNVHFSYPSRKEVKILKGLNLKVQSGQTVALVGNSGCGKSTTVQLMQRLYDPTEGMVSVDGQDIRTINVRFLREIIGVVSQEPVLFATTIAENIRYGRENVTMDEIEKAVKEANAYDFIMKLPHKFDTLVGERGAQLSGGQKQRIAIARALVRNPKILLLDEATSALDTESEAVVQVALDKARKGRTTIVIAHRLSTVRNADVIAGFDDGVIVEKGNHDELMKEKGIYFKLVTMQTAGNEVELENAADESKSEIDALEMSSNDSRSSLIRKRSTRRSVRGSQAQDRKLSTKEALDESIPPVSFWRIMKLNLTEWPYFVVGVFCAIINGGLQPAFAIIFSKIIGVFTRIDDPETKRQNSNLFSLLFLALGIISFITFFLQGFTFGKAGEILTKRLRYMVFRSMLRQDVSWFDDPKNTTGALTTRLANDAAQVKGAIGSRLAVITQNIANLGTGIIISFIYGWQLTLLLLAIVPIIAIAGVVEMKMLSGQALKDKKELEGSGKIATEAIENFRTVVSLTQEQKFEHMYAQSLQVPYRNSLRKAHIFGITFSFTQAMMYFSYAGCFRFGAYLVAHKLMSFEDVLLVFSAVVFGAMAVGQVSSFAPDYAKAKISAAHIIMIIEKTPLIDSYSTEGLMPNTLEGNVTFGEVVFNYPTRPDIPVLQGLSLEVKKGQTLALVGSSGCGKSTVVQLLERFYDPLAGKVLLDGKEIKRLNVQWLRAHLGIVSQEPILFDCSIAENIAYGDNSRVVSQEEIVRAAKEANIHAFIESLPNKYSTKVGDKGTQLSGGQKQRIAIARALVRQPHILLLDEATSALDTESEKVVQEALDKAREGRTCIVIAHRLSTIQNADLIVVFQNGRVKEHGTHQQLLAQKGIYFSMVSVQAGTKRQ

[2] = Disappearance of docetaxel in rat hepatic microsomes with LC478; assay type: in vitro ADME; conditions: rat hepatic microsomes, LC478 1, 5, 10 µM
Experimental: (§3) The hepatic and intestinal microsomes were prepared based on a similar reported method.
(§4) Adding 0.1 M phosphate buffer (pH 7.4) adjusted the total volume as 0.5 mL, and then the components were incubated at 37 °C using a thermomixer at 500 opm. After incubation of 15 and 30 min for the hepatic and intestinal microsomes, respectively, 1 mL of acetonitrile with 5 µg/mL of paclitaxel as an internal standard added to terminate the reaction.
(§5) The unweighted kinetic data from rat hepatic and intestinal microsomes were fitted using a single-site Michaelis–Menten Equation V = Vmax × [S]/(Km + [S])(4) where [S] is the substrate concentration, Vmax is maximal velocity, and Km is substrate concentration for half-maximal velocity. The CLint was calculated by dividing the Vmax by the Km.

[3] = Disappearance of docetaxel in rat intestinal microsomes with LC478; assay type: in vitro ADME; conditions: rat intestinal microsomes, LC478 1, 5, 10 µM
Experimental: as §3, §4, §5

[4] = Rat plasma protein binding of docetaxel by equilibrium dialysis; assay type: in vitro ADME; conditions: LC478 0.1 and 10 μg/mL
Experimental: A 1 mL of the plasma was dialyzed against 1 mL of isotonic Sørensen phosphate buffer (pH 7.4) containing 3% dextran (w/v) in a dialysis cell (Spectrum Medical Industries, Laguna Hills, CA, USA) using a Spectra/Por 4 membrane (mol. wt. cutoff 12−14 KDa; Spectrum Medical Industries, USA).

[5] = LC478 concentration in intestine after oral administration and [I]/IC50 prediction; assay type: in vivo; conditions: our unpublished data
Experimental: Concentration of LC478 was determined using a HPLC-UV system. A 50 µL aliquot of acetonitrile was added to a 50 µL aliquot of biological sample. After vortex-mixing and centrifugation, the supernatant was evaporated (Dry Thermo Bath MG-2200, Eyela, Tokyo, Japan) under a soft stream of nitrogen gas at 50 °C. The residue was reconstituted in 60 µL mobile phase and a 50 µL aliquot of the supernatant was loaded onto a reverse-phase C18 column (SunFireTM; 150 mm. ℓ. × 4.6 mm. i.d.; particle size, 5 µm; Waters, Milford, MA, USA). […]. The retention time of LC478 was approximately 7.8 min, and the quantitation limit was 0.1 µg/mL.

[6] = test system: P-gp overexpressing MES-SA/DX5 sarcoma cells; conditions: cited from earlier work

## COC(=O)c1cccc(NC(=O)COc2ccc(C34CC5CC(CC(C(=O)N6CCN(Cc7ccc(C(F)(F)F)cc7)CC6)(C5)C3)C4)cc2)c1 [LC478]
[1]
  viability at 24 h: 97 to 100%
Caco-2 cells
  toxicity to Caco-2 cells: not toxic
P-gp
  IC50: 0.601 µM
[2]
  effect on hepatic metabolism of docetaxel: not inhibited
[3]
  effect on intestinal metabolism of docetaxel: not inhibited
[4]
  effect on protein binding of docetaxel in rat plasma: did not affect
[5]; after oral administration of 30 mg/kg LC478
  LC478 concentration in the intestine: 3.25 to 5.18 µM
[5]; after oral administration of 100 mg/kg LC478
  LC478 concentration in the intestine: 9.37 to 12.3 µM
[6]
  effect on P-gp mediated efflux of paclitaxel: reversed P-gp mediated efflux activity
  intrinsic cytotoxicity: without intrinsic cytotoxicity
